Source: patent US20070054916A1, “Aryl nitrogen-containing bicyclic compounds and methods of use” (Amgen Inc., priority 2004, published 2007)

The compounds below were run on production of TNF by monocytes activated with bacterial lipopolysaccharide (LPS) (assay: Lipopolysaccharide-activated monocyte TNF production assay). Settings: Homo sapiens, read-out: IC50 values in the monocyte assay (LPS induced TNF release).
Type: cell-based
In short: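 Adherent human PBMC-derived monocytes (~70%) in DMEM/2% FCS were pre-incubated 60 min with nine two-fold compound dilutions, then stimulated with E. coli K532 LPS (added as 30 ng/ml solution) for 4 h at 37 °C. Supernatant TNF-α was measured by sandwich ELISA. IC50 was taken from a polynomial fit of TNF versus compound concentration.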

| Compound | IC50 |
| --- | --- |
| Nc1ncc2cc(-c3cc(C(=O)Nc4cccc(OC(F)(F)F)c4)ccc3Cl)ccc2n1 [Example 142, 3-(2-amino-6-quinazolinyl)-4-chloro-N-(3-((trifluoromethyl)oxy)phenyl)benzamide] | ≤ 25 µM |
| COc1ccc(Cl)cc1NC(=O)Nc1ccc(-c2ccc3nc(N)ncc3c2)c(C)c1 [Example 520, N-(4-(2-amino-6-quinazolinyl)-3-methylphenyl)-N′-(5-chloro-2-(methyloxy)phenyl)urea] | ≤ 25 µM |
| COc1ccc(Cl)cc1NC(=O)c1ccc(C)c(-c2ccc3nc(N)ncc3c2)c1 [Example 143, 3-(2-amino-6-quinazolinyl)-N-(5-chloro-2-(methyloxy)phenyl)-4-methylbenzamide] | ≤ 25 µM |
| Cc1ccc(C(=O)NCc2ccc(C(F)(F)F)nc2)cc1-c1ccc2nc(N)ncc2c1 [Example 357, 3-(2-amino-6-quinazolinyl)-4-methyl-N-((6-(trifluoromethyl)-3-pyridinyl)methyl) benzamide] | ≤ 25 µM |
| CNc1ncc2cc(-c3cc(NC(=O)c4cccc5c4OC(F)(F)O5)ccc3C)cnc2n1 [Example 214, 2,2-difluoro-N-(4-methyl-3-(2-(methylamino)pyrido[2,3-d]pyrimidin-6-yl)phenyl)-1,3-benzodioxole-4-carboxamide] | ≤ 25 µM |
| CNc1ncc2cc(-c3cc(NC(=O)c4cccc(C(F)(F)F)c4F)ccc3C)cnc2n1 [Example 202] | ≤ 25 µM |
| Nc1ncc2cc(-c3cccc(C(=O)Nc4cccc(C(F)(F)F)c4)c3)ccc2n1 [Example 52, 3-(2-amino-6-quinazolinyl)-N-(3-(trifluoromethyl)phenyl)benzamide] | ≤ 25 µM |
| Cc1ccc(C(=O)Nc2cccc(C(F)(F)F)c2F)cc1-c1ccc2nc(N)ncc2c1 [Example 19, 3-(2-amino-6-quinazolinyl)-N-(2-fluoro-3-(trifluoromethyl)phenyl)-4-methylbenzamide] | ≤ 25 µM |
| Cc1ccc(C(=O)Nc2cc(C(F)(F)F)ccc2N2CCCCC2)cc1-c1ccc2nc(N)ncc2c1 [Example 76, 3-(2-amino-6-quinazolinyl)-4-methyl-N-(2-(1-piperidinyl)-5-(trifluoromethyl)phenyl)benzamide] | ≤ 25 µM |
| CNc1ncc2cc(-c3cc(C(=O)Nc4cc(C(C)(C)C)ccc4OC)ccc3C)cnc2n1 [Example 186] | ≤ 25 µM |
| Cc1ccc(C(=O)Nc2cc(C(F)(F)F)ccc2N2CCOCC2)cc1-c1ccc2nc(N)ncc2c1 [Example 79, 3-(2-amino-6-quinazolinyl)-4-methyl-N-(2-(4-morpholinyl)-5-(trifluoromethyl)phenyl)benzamide] | ≤ 25 µM |
| Cc1ccc(C(=O)Nc2ccc3c(c2)N(C(=O)CN2CCOCC2)CC3(C)C)cc1-c1ccc2nc(N)ncc2c1 [Example 65, 3-(2-amino-6-quinazolinyl)-N-(3,3-dimethyl-1-(4-morpholinytacetyl)-2,3-dihydro-1H-indol-6-yl)-4-methylbenzamide] | ≤ 25 µM |
| CCN(CC)CC(=O)N1CC(C)(C)c2ccc(NC(=O)c3ccc(C)c(-c4ccc5nc(N)ncc5c4)c3)cc21 [Example 64, 3-(2-amino-6-quinazolinyl)-N-(1-(N,N-diethyiglycyl)-3,3-dimethyl-2,3-dihydro-1H-indol-6-yl)-4-methylbenzamide] | ≤ 25 µM |
| Nc1ncc2cc(-c3cc(C(=O)Nc4cccc(C(F)(F)F)c4F)ccc3Cl)ccc2n1 [Example 140, 3-(2-amino-6-quinazolinyl)-4-chloro-N-(2-fluoro-3-(trifluoromethyl)phenyl)benzamide] | ≤ 25 µM |
| Nc1ncc2cc(-c3cc(C(=O)Nc4cccc(C(F)(F)F)c4)ccc3F)ccc2n1 [Example 137, 3-(2-amino-6-quinazolinyl)-4-fluoro-N-(3 (trifluoromethyl)phenyl)benzamide] | ≤ 25 µM |
| COc1cc(OC)cc(C(=O)Nc2cc(-c3ccc4nc(N)ncc4c3)ccc2F)c1 [Example 490, N-(5-(2-amino-6-quinazolinyl)-2-fluorophenyl)-3,5-bis(methyloxy)benzamide] | ≤ 25 µM |
| CNc1ncc2cc(-c3cccc(NC(=O)c4cccc(C(F)(F)F)c4)c3C)cnc2n1 [Example 198, N-2-methyl-3-(2-(methylamino)pyrido[2,3-d]pyrimidin-6-yl)-N-(3-(trifluoromethyl)phenyl)benzamide] | ≤ 25 µM |
| Cc1ccc(C(=O)Nc2cc(C(F)(F)F)ccc2OCCCN(C)C)cc1-c1ccc2nc(N)ncc2c1 [Example 144, 3-(2-amino-6-quinazolinyl)-N-(2-((3-(dimethylamino)propyl)oxy)-5-(trifluoromethyl)phenyl)-4-methylbenzamide] | ≤ 25 µM |
| Cc1ccnc(NC(=O)c2ccc(C)c(-c3ccc4nc(N)ncc4c3)c2)c1 [Example 339, 3-(2-amino-6-quinazolinyl)-4-methyl-N-(4-methyl-2-pyridinyl)benzamide] | ≤ 25 µM |
| Nc1ncc2cc(-c3ccc(F)c(NC(=O)c4cc(C(F)(F)F)ccc4F)c3)ccc2n1 [Example 433, N-(5-(2-aminoquinazolin-6-yl)-2-fluorophenyl)-2-fluoro-5-(trifluoromethyl)benzamide] | ≤ 25 µM |

| Compound | IC50 |
| --- | --- |
| Cc1ccc(NC(=O)c2cc(C(F)(F)F)ccc2N(C)CCCN(C)C)cc1-c1ccc2nc(N)ncc2c1 [Example 431, N-(3-(2-amino-6-quinazolinyl)-4-methylphenyl)-2-((3-(dimethylamino)propyl)(methyl)amino)-5-(trifluoromethyl)benzamide] | ≤ 25 µM |
| Cc1ccc(C(=O)Nc2ccc(NC(=O)NCCN3CCOCC3)c(C(F)(F)F)c2)cc1-c1ccc2nc(N)ncc2c1 [Example 4] | ≤ 25 µM |
| Cc1cc(NC(=O)c2ccc(C)c(-c3ccc4nc(N)ncc4c3)c2)ns1 [Example 344, 3-(2-amino-6-quinazolinyl)-4-methyl-N-(5-methyl-3-isothiazolyl) benzamide] | ≤ 25 µM |
| CCN(CC)CC(=O)Nc1cccc(NC(=O)c2ccc(C)c(-c3ccc4nc(N)ncc4c3)c2)c1C [Example 63, 3-(2-amino-6-quinazolinyl)-N-(3-((N,N-diethylglycyl)amino)-2-methyiphenyl)-4-methylbenzamide] | ≤ 25 µM |
| Cc1csc(NC(=O)c2ccc(C)c(-c3ccc4nc(N)ncc4c3)c2)n1 [Example 341, 3-(2-amino-6-quinazolinyl)-4-methyl-N-(4-thiazol-2-yl)benzamide] | ≤ 25 µM |
| Cc1ccc(C(=O)Nc2cc(C(C)(C)C)ccc2C(C)(C)C)cc1-c1ccc2nc(N)ncc2c1 [Example 78, 3-(2-amino-6-quinazolinyl)-N-(2,5-bis(1,1-dimethylethyl)phenyl)-4-methylbenzamide] | ≤ 25 µM |
| Cc1ccc(C(=O)Nc2cc(C(C)(C)C)ccc2N(C)CCCN(C)C)cc1-c1ccc2nc(N)ncc2c1 [Example 244, 3-(2-amino-6-quinazolinyl)-N-(2-((3-(dimethylamino)propyl)(methyl)amino)-5-(1,1-dimethylethyl)phenyl)-4-methylbenzamide] | ≤ 25 µM |
| CNc1ncc2cc(-c3cc(C(=O)Nc4cc(C(=O)NCCN5CCOCC5)cc(C(F)(F)F)c4)ccc3C)cnc2n1 [Example 189, 4-methyl-3-(2-(methylamino)pyrido [2,3-d]pyrimidin-6-yl)-N-(3-(((2-(4-morpholinyl)ethyl)amino)carbonyl)-5-(trifluoromethyl)phenyl)benzamide] | ≤ 25 µM |
| CCN(CC)CCNC(=O)Nc1ccc(NC(=O)c2ccc(C)c(-c3cnc4nc(NC)ncc4c3)c2)cc1C(F)(F)F [Example 188] | ≤ 25 µM |
| CNc1ncc2cc(-c3cc(C(=O)Nc4cc(C(C)(C)C)ccc4NC(=O)CN4CCOCC4)ccc3C)cnc2n1 [Example 192] | ≤ 25 µM |
| Cc1cc(F)c(C(=O)Nc2cccc(C(F)(F)F)c2)cc1-c1ccc2nc(NC3CC3)ncc2c1 [Example 39, 5-(2-(cyclopropylamino)-6-quinazolinyl)-2-fluoro-4-methyl-N-(3-(trifluoromethyl)phenyl)benzamide] | ≤ 25 µM |
| Cc1ccc(C(=O)Nc2cccc(C(F)(F)F)c2F)cc1-c1ccc2nc(NCCN3CCCC3)ncc2c1 [Example 26, N-(2-fluoro-3-(trifluoromethyl)phenyl)-4-methyl-3-(2-((2-(1-pyrrolidinyl)ethyl)amino)-6-quinazolinyl) benzamide] | ≤ 25 µM |
| CN(C)CCOc1ccc(-c2ccc3nc(N)ncc3c2)cc1C(=O)Nc1cccc(C(F)(F)F)c1 [Example 57, 5-(2-amino-6-quinazolinyl)-2-((2-(dimethylamino)ethyl)oxy)-N-(3-(trifluoromethyl)phenyl)benzamide] | ≤ 25 µM |
| Cc1ccc(C(=O)Nc2nc(C)c(C)s2)cc1-c1ccc2nc(N)ncc2c1 [Example 225, 3-(2-amino-6-quinazolinyl)-N-(4,5-dimethyl-1,3-thiazol-2-yl)-4-methylbenzamide] | ≤ 25 µM |
| Cc1cc(NC(=O)c2ccc(C)c(-c3ccc4nc(N)ncc4c3)c2)c(N(C)CCCN(C)C)cc1C [Example 116, 3-(2-amino-6-quinazolinyl)-N-(2-((3-(dimethylamino)propyl)(methyl)amino)-4,5-dimethylphenyl)-4-methylbenzamide] | ≤ 25 µM |
| Cc1ccc(C(=O)Nc2cc(C(F)(F)F)ccc2N2CCCC2)cc1-c1ccc2nc(N)ncc2c1 [Example 80, 3-(2-amino-6-quinazolinyl)-4-methyl-N-(2-(1-pyrrolidinyl)-5-(trifluoromethyl)phenyl)benzamide] | ≤ 25 µM |
| Cc1ccc(NC(=O)Nc2cccc(C(F)(F)F)c2)cc1-c1ccc2nc(N)ncc2c1 [Example 524, N-(3-(2-amino-6-quinazolinyl)-4-methylphenyl)-N′-(3-(trifluoromethyl)phenyl)urea] | ≤ 25 µM |
| CNc1ncc2cc(-c3cccc(C(=O)Nc4cccc(C(F)(F)F)c4)c3)ccc2n1 [Example 53, 3-(2-(methylamino)-6-quinazolinyl)-N-(3-(trifluoromethyl)phenyl)benzamide] | ≤ 25 µM |
| Cc1ccc(C(=O)Nc2cccc(C(F)(F)F)c2C)cc1-c1ccc2nc(NCCN3CCOCC3)ncc2c1 [Example 28, 4-methyl-N-(2-methyl-3-(trifluoromethyl)phenyl)-3-(2-((2-(4-morpholinyl)ethyl)amino)-6-quinazolinyl) benzamide] | ≤ 25 µM |
